Source: patent US20260356803A1, “Nicotinamide derivatives” (Board of Regents, The University of Texas System, priority 2024, published 2026)
“Also recorded” adds a separate entry of the source.

Columns and labels:
primary mouse GBM cells = details: screen of 200,000 synthetic compounds; cited from earlier work
[1] = test system: mouse and human MPNST cell lines; details: cited from earlier work
[2] = test system: human MPNST cells subcutaneously xenografted into mice; details: cited from earlier work
[3] = Levels of 9 in media and cells over time; assay type: cell-based
Source text: Given that compound 21 (1) and 9 both resemble and are rescued by Nam, and the fact that the NAD salvage pathway is essential for toxicity, we considered that these two compounds may themselves be substrates in the NAD salvage pathway. In this model, we would predict that the compounds would be metabolized in cells, and that excess Nam acting as a competitive substrate would block that metabolism. To test this hypothesis, we measured the total amount of 9 in media and cells over time with or without Nam supplementation.
Prior to the experiment, cells were cultured in low-Nam DMEM for at least 1 passage (3 days) to deplete intracellular Nam. 15,000 cells were plated in a 96-well plate with 100 μL low-Nam media. At appropriate time points, 500 nM 1 or 9, or equal volume of vehicle (DMSO) were added using TECAN. 200 μL of acetonitrile with 0.1% formic acid were added to the assayed wells. […] The supernatants were filtered through 0.2 μm PVDF filters and analyzed by LC-MS/TOF.
Initial evaluation of the stability of 9 in the presence and absence of exogenous Nam was performed using LC-MS/MS analysis with a Sciex TripleQuad™ 4500 (AB SCIEX, Framingham, MA, USA) coupled to a Shimadzu (Columbia, MD) Prominence LC. The compound was detected in positive MRM mode following the transition 204.9 to 79.0. […]

iHCT116 cells = assay: iHCT116 cell viability with or without ectopic NMNAT1 expression; assay type: cell-based
Source text: Second, we screened for resistance to 9 in iHCT116 cells, a system that uses inducible mutagenesis and forward genetics to find compound-resistant mutations and thus can reveal both loss of function and gain of function alleles that suppress activity. The iHCT116 system is a barcoded cell line in which we temporally control mutagenesis by the addition of indole acetic acid (IAA) mediated degradation of the mismatch repair protein MLH1.^12 MLN4924 is a small molecule toxin that we use as a positive control to verify that IAA treatment leads to increased mutations. By degrading MLH1 and increasing the overall mutation rate, IAA treatment increases the frequency of UBA3 mutations, leading to a higher rate of MLN4924 resistance. […] Having previously established a relationship between either NMNAT1 levels or NAMPT activity and compound resistance, we analyzed the levels of both enzymes in multiple resistant clones that harbored unique barcode sequences. […] To test whether reduced NMNAT1 levels in these clones contributed to resistance, we ectopically expressed NMNAT1 in either the parental cells or a representative resistant clone with low NMNAT1 expression.
In 96-well assay plates (Corning #2903), 2,000 cells were plated per well in 100 μL of medium and allowed to adhere overnight. The next day, compounds or Nam suspended in DMSO were dispensed to the assayed wells using a D300e Digital Dispenser (Tecan). All wells were normalized to 0.5% DMSO. 72 hours after incubation at 37 °C in 5% CO2, cell viability was assayed using an ATP-based luminescent viability assay, CellTiter-Glo (Promega #G8462). CellTiter-Glo substrate was mixed 1:1 with phosphate-buffered saline (PBS) supplemented with 1% Triton X-100, and 40 μL of this mixture was added to the assay wells. After the plates were shaken on a microplate shaker for 10 minutes at room temperature, luminescence was recorded using a Synergy 2 Microplate Reader or Cytation 5 plate reader (BioTek). In Prism 9 software (GraphPad), ten-point dose response curves were plotted with baseline-correction to the vehicle control well, and IC50 values were calculated by curve fitting using asymmetric (five parameter), least squares fit.

| decrease in levels of 9 with Nam ([3]; 100 μM Nam, 24 hours) | half-life at 0.5 µM ([3]; cells in nam-free dmem, 10% FBS Nam-free DMEM) | SMILES | anti-proliferative activity (primary mouse GBM cells) | toxicity to MPNST cell lines [1] | toxic effects in mice ([2]; mice bearing MPNST xenografts) | growth of xenograft tumors ([2]; mice, listed as compound 21) | decrease in IC50 on ectopic NMNAT1 expression (iHCT116 cells; parental iHCT116) | IC50 (iHCT116 cells; parental iHCT116, NMNAT1-expression) | IC50 (iHCT116 cells; parental iHCT116, mock-infected) | IC50 (iHCT116 cells; representative resistant clone with low NMNAT1 expression) | decrease in IC50 on ectopic NMNAT1 expression (iHCT116 cells; resistant clone) | IC50 (iHCT116 cells; resistant clone with ectopic NMNAT1 expression) |
| --- | --- | --- | --- | --- | --- | --- | --- | --- | --- | --- | --- | --- |
| – | – | O=C(Nc1cccnc1)c1cccs1 [Compound 1, N-(pyridin-3-yl)thiophene-2-carboxamide] | hit | selectively toxic | without obvious toxic effects | inhibited the growth; also recorded: reduces the growth of xenograft tumors | – | – | – | – | – | – |
| no appreciable decrease | ~3.8 h | O=C(Nc1cccs1)c1cccnc1 [Compound 9, N-(Thiophen-2-yl)nicotinamide] | – | – | – | – | 1.85 fold | 26.9 nM | 49.7 nM | 574 nM | 9.58 fold | 59.9 nM |
